Results: patent publication US7041851B2, “Fluorinated phenyl thiophenyl derivatives and their use for imaging serotonin transporters” (The Trustees of the University of Pennsylvania, priority 2002, dated 2006)
Where “and” joins values, the source holds several entries; their conditions need not be identical. Identical values can stand only once.

What was measured:
[1] = Organ distribution and brain regional uptake of [18F]ACF in rats
[2] = In vivo metabolism of [18F]ACF in rats; conditions: three rats, one hour after iv injection
Procedure: In vivo metabolism of [^18F]ACF ([^18F]25), in three rats was evaluated at one hour after iv injection.

CN(C)Cc1ccccc1Sc1cc([18F])c(Cl)cc1N [[^18F]ACF]
Organ distribution: Lung ([1]; 30 min after iv injection): 1.76 ± 0.20 % dose/organ | Organ distribution: Muscle ([1]; 30 min after iv injection): 10.70 ± 1.68 % dose/organ | Organ distribution: Skin ([1]; 30 min after iv injection): 6.51 ± 0.66 % dose/organ | Organ distribution: Spleen ([1]; 30 min after iv injection): 0.29 ± 0.09 % dose/organ | Ratio to Cerebellum: Cerebellum ([1]; 30 min after iv injection): 1.00 ± 0.00 | Ratio to Cerebellum: Cortex ([1]; 30 min after iv injection): 1.69 ± 0.20 | Ratio to Cerebellum: Hippocampus ([1]; 30 min after iv injection): 1.89 ± 0.24 | Ratio to Cerebellum: Hypothalamus ([1]; 30 min after iv injection): 2.29 ± 0.06 | Ratio to Cerebellum: Remainder ([1]; 30 min after iv injection): 1.80 ± 0.11 | Ratio to Cerebellum: Striatum ([1]; 30 min after iv injection): 2.06 ± 0.19 | Regional brain distribution: Cerebellum ([1]; 30 min after iv injection): 0.37 ± 0.07 % dose/g | Regional brain distribution: Cortex ([1]; 30 min after iv injection): 0.62 ± 0.07 % dose/g | Regional brain distribution: Hippocampus ([1]; 30 min after iv injection): 0.70 ± 0.06 % dose/g | Regional brain distribution: Hypothalamus ([1]; 30 min after iv injection): 0.85 ± 0.14 % dose/g | Regional brain distribution: Remainder ([1]; 30 min after iv injection): 0.67 ± 0.09 % dose/g | Regional brain distribution: Striatum ([1]; 30 min after iv injection): 0.76 ± 0.08 % dose/g | Organ distribution: Blood ([1]; 60 min after iv injection): 4.65 ± 0.46 % dose/organ | Organ distribution: Bone ([1]; 60 min after iv injection): 0.08 ± 0.02 % dose/organ | Organ distribution: Brain ([1]; 60 min after iv injection): 0.69 ± 0.09 % dose/organ | Organ distribution: Heart ([1]; 60 min after iv injection): 0.11 ± 0.01 % dose/organ | Organ distribution: Kidney ([1]; 60 min after iv injection): 1.38 ± 0.25 % dose/organ | Organ distribution: Liver ([1]; 60 min after iv injection): 10.30 ± 2.50 % dose/organ | Organ distribution: Lung ([1]; 60 min after iv injection): 0.73 ± 0.08 % dose/organ | Organ distribution: Muscle ([1]; 60 min after iv injection): 7.69 ± 0.29 % dose/organ | Organ distribution: Skin ([1]; 60 min after iv injection): 5.97 ± 1.64 % dose/organ | Organ distribution: Spleen ([1]; 60 min after iv injection): 0.13 ± 0.02 % dose/organ | Ratio to Cerebellum: Cerebellum ([1]; 60 min after iv injection): 1.00 ± 0.00 | Ratio to Cerebellum: Cortex ([1]; 60 min after iv injection): 2.10 ± 0.47 | Ratio to Cerebellum: Hippocampus ([1]; 60 min after iv injection): 2.91 ± 0.64 | Ratio to Cerebellum: Hypothalamus ([1]; 60 min after iv injection): 3.53 and 3.53 ± 0.33 | Ratio to Cerebellum: Remainder ([1]; 60 min after iv injection): 2.56 ± 0.44 | Ratio to Cerebellum: Striatum ([1]; 60 min after iv injection): 2.88 ± 0.52 | Regional brain distribution: Cerebellum ([1]; 60 min after iv injection): 0.15 ± 0.03 % dose/g | Regional brain distribution: Cortex ([1]; 60 min after iv injection): 0.33 ± 0.13 % dose/g | Regional brain distribution: Hippocampus ([1]; 60 min after iv injection): 0.45 ± 0.13 % dose/g | Regional brain distribution: Hypothalamus ([1]; 60 min after iv injection): 0.54 ± 0.13 % dose/g | Regional brain distribution: Remainder ([1]; 60 min after iv injection): 0.39 ± 0.03 % dose/g | Regional brain distribution: Striatum ([1]; 60 min after iv injection): 0.45 ± 0.14 % dose/g | Organ distribution: Blood ([1]; 120 min after iv injection): 3.20 ± 0.57 % dose/organ | Organ distribution: Bone ([1]; 120 min after iv injection): 0.28 ± 0.06 % dose/organ | Organ distribution: Brain ([1]; 120 min after iv injection): 0.21 ± 0.03 % dose/organ | Organ distribution: Heart ([1]; 120 min after iv injection): 0.06 ± 0.01 % dose/organ | Organ distribution: Kidney ([1]; 120 min after iv injection): 0.78 ± 0.15 % dose/organ | Organ distribution: Liver ([1]; 120 min after iv injection): 5.90 ± 1.03 % dose/organ | Organ distribution: Lung ([1]; 120 min after iv injection): 0.32 ± 0.06 % dose/organ | Organ distribution: Muscle ([1]; 120 min after iv injection): 4.02 ± 1.22 % dose/organ | Organ distribution: Skin ([1]; 120 min after iv injection): 2.61 ± 0.17 % dose/organ | Organ distribution: Spleen ([1]; 120 min after iv injection): 0.06 ± 0.02 % dose/organ | Ratio to Cerebellum: Cerebellum ([1]; 120 min after iv injection): 1.00 ± 0.00 | Ratio to Cerebellum: Cortex ([1]; 120 min after iv injection): 1.77 ± 0.04 | Ratio to Cerebellum: Hippocampus ([1]; 120 min after iv injection): 2.67 ± 0.15 | Ratio to Cerebellum: Hypothalamus ([1]; 120 min after iv injection): 3.23 ± 0.21 | Ratio to Cerebellum: Remainder ([1]; 120 min after iv injection): 2.34 ± 0.09 | Ratio to Cerebellum: Striatum ([1]; 120 min after iv injection): 2.97 ± 0.16 | Regional brain distribution: Cerebellum ([1]; 120 min after iv injection): 0.05 ± 0.01 % dose/g | Regional brain distribution: Cortex ([1]; 120 min after iv injection): 0.09 ± 0.01 % dose/g | Regional brain distribution: Hippocampus ([1]; 120 min after iv injection): 0.14 ± 0.02 % dose/g | Regional brain distribution: Hypothalamus ([1]; 120 min after iv injection): 0.17 ± 0.01 % dose/g | Regional brain distribution: Remainder ([1]; 120 min after iv injection): 0.12 ± 0.01 % dose/g | Regional brain distribution: Striatum ([1]; 120 min after iv injection): 0.15 ± 0.02 % dose/g | Organ distribution: Blood ([1]; 240 min after iv injection): 2.33 ± 0.34 % dose/organ | Organ distribution: Bone ([1]; 240 min after iv injection): 0.27 ± 0.07 % dose/organ | Organ distribution: Brain ([1]; 240 min after iv injection): 0.06 ± 0.01 % dose/organ | Organ distribution: Heart ([1]; 240 min after iv injection): 0.04 ± 0.01 % dose/organ | Organ distribution: Kidney ([1]; 240 min after iv injection): 0.51 ± 0.07 % dose/organ | Organ distribution: Liver ([1]; 240 min after iv injection): 3.55 ± 0.35 % dose/organ | Organ distribution: Lung ([1]; 240 min after iv injection): 0.15 ± 0.02 % dose/organ | Organ distribution: Muscle ([1]; 240 min after iv injection): 2.08 ± 0.05 % dose/organ | Organ distribution: Skin ([1]; 240 min after iv injection): 1.53 ± 0.17 % dose/organ | Organ distribution: Spleen ([1]; 240 min after iv injection): 0.03 ± 0.00 % dose/organ | Ratio to Cerebellum: Cerebellum ([1]; 240 min after iv injection): 1.00 ± 0.00 | Ratio to Cerebellum: Cortex ([1]; 240 min after iv injection): 1.52 ± 0.21 | Ratio to Cerebellum: Hippocampus ([1]; 240 min after iv injection): 1.99 ± 0.23 | Ratio to Cerebellum: Hypothalamus ([1]; 240 min after iv injection): 2.37 and 2.37 ± 0.23 | Ratio to Cerebellum: Remainder ([1]; 240 min after iv injection): 1.58 ± 0.13 | Ratio to Cerebellum: Striatum ([1]; 240 min after iv injection): 2.35 ± 0.05 | Regional brain distribution: Cerebellum ([1]; 240 min after iv injection): 0.02 ± 0.00 % dose/g | Regional brain distribution: Cortex ([1]; 240 min after iv injection): 0.03 ± 0.01 % dose/g | Regional brain distribution: Hippocampus ([1]; 240 min after iv injection): 0.04 ± 0.01 % dose/g | Regional brain distribution: Hypothalamus ([1]; 240 min after iv injection): 0.05 ± 0.00 % dose/g | Regional brain distribution: Remainder ([1]; 240 min after iv injection): 0.03 ± 0.00 % dose/g | Regional brain distribution: Striatum ([1]; 240 min after iv injection): 0.05 ± 0.00 % dose/g | Time of peak specific uptake in the hypothalamus region ([1]; after injection): 60 to 120 min | Initial brain uptake ([1]; iv): 1.71±0.45 % dose/g | Activity extracted from the brain that was original compound (HPLC) [2]: 95.5±0.40% | Percentage of organic-extractable material, kidney [2]: 20.25±0.60% | Percentage of organic-extractable material, liver [2]: 20.03±6.60% | Percentage of organic-extractable material, plasma [2]: 6.76±1.00%
